Reference: US20240083949A1, “CELL PENETRATING PEPTIDE COMPOSITIONS AND METHODS THEREOF” (The Regents of the University of California, priority 2022, published 2024)
“Also recorded” adds a separate entry of the source. Positions of bridges follow the written chain, without caps; N, C: chain ends. Non-standard residues stand in square brackets, D forms with d. Lys(N3) = [N-]=[N+]=NCCCC[C@H](N)C(=O)O; Pra = C#CC[C@H](N)C(=O)O

Assays:
U87 cells [1] = assay: Endocytosis inhibitors treatment, RB-EPP6 uptake by flow cytometry; type: cell-based, human; details: 500 nM RB-EPP6, flow cytometry
Method: (§1) Flow cytometry experiments. To measure the RB signal intensity, a NovoCyte flow cytometer (NovoExpress) was used. Quantification of fluorescence intensity in each condition was performed using Novoxpress software. Fifty thousand cells were analyzed for each condition. A green, fluorescent dye used in DNA staining, YOYO was included in all the flow cytometry experiments, serving as a cell live/dead indicator. For the YOYO only group, the cells were treated with trypsin for 5-10 min. After that, cells were fixed in a 1.5 ml centrifuge tube using 4% paraformaldehyde at room temperature for 15 min. Subsequently, fixed cells were washed with PBS once and was permeabilized using 90% cold MeOH on ice for 15 min. Then, cells were incubated with YOYO in phenol-free medium. After half an hour, cells were centrifuged to get rid of YOYO solution and resuspended in fresh phenol-free medium before doing flow cytometry.
Endocytosis inhibitors treatment. U87 Cells were incubated with different endocytosis inhibitors for 1 h respectively. Afterwards, old medium was replaced with medium containing 500 nM RB-EPP 6. After 1 h, a trypsin-EDTA solution (0.05%, Sigma) was added to detach the cells. The cells were collected by centrifugation. Fresh phenol-free medium was added to each condition. Once resuspended, cells were filtered into glass tubes before flow cytometry.

FIBCD1 = target: T1, FIBCD1 (Homo sapiens, UniProt Q8N539); assay: FIBCD1 competition assay; type: cell-based; details: U87 cells, 500 nM RB-EPP6, flow cytometry
T1 construct: endogenous in cells; host or cells: U87 human glioblastoma cells
T1 sequence (Q8N539 1-461): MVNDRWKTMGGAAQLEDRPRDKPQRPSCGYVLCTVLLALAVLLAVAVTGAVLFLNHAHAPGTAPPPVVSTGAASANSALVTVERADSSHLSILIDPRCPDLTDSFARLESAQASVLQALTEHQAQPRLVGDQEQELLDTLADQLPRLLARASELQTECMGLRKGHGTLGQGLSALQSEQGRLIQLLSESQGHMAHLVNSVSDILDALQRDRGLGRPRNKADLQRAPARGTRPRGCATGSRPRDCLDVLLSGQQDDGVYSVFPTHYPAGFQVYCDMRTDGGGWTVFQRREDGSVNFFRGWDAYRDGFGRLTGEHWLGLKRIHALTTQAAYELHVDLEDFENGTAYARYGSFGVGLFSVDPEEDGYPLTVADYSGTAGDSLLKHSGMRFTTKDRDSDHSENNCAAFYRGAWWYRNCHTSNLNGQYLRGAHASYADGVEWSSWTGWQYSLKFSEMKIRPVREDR
Method: as §1
FIBCD1 competition assay. U87 cells were incubated with 500 nM RB-EPP 6 and YOYO, together with FIBCD1 ligands, sodium acetate (SA) at 3.1 mM (1×) and acetylmannosamine (AMA) at 1.6 mM (1×) respectively. After 1 h, trypsin was added to detach the cells. Cell pallets were collected by centrifugation. Fresh phenol-free medium was added to each condition. Once resuspended, cells were filtered into glass tubes before flow cytometry.

U87 cells [2] = assay: Confocal imaging of Dye-EPP uptake in U87 cells; type: cell-based, human; details: for ability to enter the cells (intracellular fluorescence): RB-tagged EPPs, ranking among EPP1-7
Method: Confocal Imaging experiments. To image the cells, a Zeiss 880 inverted confocal laser scanning microscope (Carl Zeiss, Germany) was used. Image acquisition and analyses were carried out using the manufacturer's software (ZEN, Carl Zeiss). Quantification of fluorescence intensity in single cells was performed using Fiji software.
Dye-EPP incubation. For general incubation, 300 k U87 cells were seeded in full medium containing 10% FBS and 1% PS in a 35×10 mm petri dish. The cells were incubated overnight in full medium. Stock solution of Dye-EPPs were made in DMSO to reach a concentration of 500 μM. Fresh cell culture medium was used to dilute the stock solution to 500 nM and replace the old medium on day 2. Cells were incubated with RB-EPPs for different time periods, followed by a one-time wash with phenol-free fresh culture medium before measurements.
Concentration gradient experiment. U87 Cells were incubated with RB-EPP 6 at different concentrations (20 nM, 200 nM, 2 μM, 20 μM, 50 μM and 100 μM). After wash with fresh medium once cells were examined by confocal imaging.

[3] = Octanol-water partition assay; type: physicochemical
Method: Octanol-water partition assay. For each RB-EPP, pre-mix 250 μl of octanol with 250 μl of water in a 1.5 ml centrifuge tube. 2 μl of RB-EPP was added to the solution at the concentration of 500 μM. After vortex the mixture, centrifuge at the highest speed for 10 min to separate the octanol and water phases. Samples were collected from both phases and quantified by the Analytical HPLC separately.

a = assay: a
Source text: Table printed on a drawing sheet, FIGURES 7A-7B
The patent's description of the figure: FIGS. 7A-7B. (FIG. 7a) PAMPA assay results of EPPs.
First reader's note: Panel a of the sheet; per the description these are PAMPA permeability results, and panel b is a bar graph of the same values.

different cell lines = assay: RB-EPP6 uptake in different cell lines (confocal imaging); type: cell-based
Source text: Cell lines and cell culture. The human glioblastoma cell line (U87) was gifted from Prof. Wei Wei (Institute For Systems Biology, Seattle). The human monocytic leukemia cell line (THP-1) and the human T-cell leukemia cell line (Jurkat) were purchased from ATCC. The human embryonic kidney cell line (HEK-293T), the human osteosarcoma cell line (U2OS), the human breast cancer cell line (MCF-7), the human metastatic melanoma cell lines (IGR-37, IGR-39, WM266-4 and WM115), the human cervical carcinoma cell line (HeLa), and the human myelogenous leukemia cell line (K562) were gifted from Prof. Yinsheng Wang (UC Riverside). The non-tumorigenic epithelial cell line (MCF 10A) and the human breast adenocarcinoma cell line (MDA-MB-231) were gifted from Prof. Wenwan Zhong (UC Riverside). The canine epithelial kidney cell line (MDCK) and the African green monkey kidney cell line (Vero) were gifted from Prof. Hai Rong (UC Riverside). The human colon carcinoma cell line (HCT116) was gifted from Prof. Xuan Liu (UC Riverside). The human liver carcinoma cell line (HEPG2), the rat liver cell line (MCA7777) and the mouse sarcoma cell line (J774A.1) were gifted from Prof. Joseph Genereux (UC Riverside).
Confocal Imaging experiments. […] Quantification of fluorescence intensity in single cells was performed using Fiji software. […]

U87 cells [4] = assay: Heparin binding assay, RB-EPP6 uptake by flow cytometry; type: cell-based, human; details: heparin 10-200 μg/ml
Method: as §1, with “cytometry. Heparin binding assay. […] A trypsin-EDTA solution (0.05%, Sigma) was added to detach the cells. The cells were collected by centrifugation. Fresh phenol-free medium was added to each condition. Once resuspended, cells were filtered into glass tubes before flow cytometry.” for “cytometry.”

Row | Molecule | effect of inhibitor on RB-EPP6 uptake (U87 cells [1]) | Pe (a) [×10⁻⁶ cm/s] | also measured
1 | O=C(N/N=C/c1ccc(O)c(O)c1)c1cc2ccccc2cc1O [Dynasore] | almost completely suppressed |  | 
2 | O=C1NC(=NS(=O)(=O)c2cccc3ccccc23)S/C1=C\c1ccc(Br)cc1 [Pitstop 2] | did not affect the uptake |  | 
3 | CC(=O)NC1C(O)OC(CO)C(O)C1O (stereo not drawn) [acetylmannosamine] |  |  | effect of FIBCD1 ligand on RB-EPP6 uptake (FIBCD1): inhibit RB-EPP6 uptake in a concentration-dependent manner
4 | C=C1[C@@H](C)[C@H]2[C@H](Cc3ccccc3)NC(=O)[C@]23[C@H](OC(C)=O)/C=C/[C@@](C)(O)C(=O)[C@@H](C)C/C=C/[C@H]3[C@@H]1O [cytochalasin D] | significantly decreased |  | 
5 | CCCCC[C@@H](O)[C@H]1C(=O)O[C@H](C)[C@@H](O)/C=C/C=C/C=C/C=C/C=C(\C)[C@@H](O)C[C@H](O)C[C@H](O)C[C@H](O)C[C@H](O)C[C@H](O)C[C@@H]1O [filipin] | did not inhibit |  | 
6 | c1ccc2c(c1)Nc1ccccc1S2 [phenothazine] | did not affect the uptake |  | 
7 | RB-cy(YTYYT) [RB-EPP3] |  |  | ability to enter the cells (intracellular fluorescence) (U87 cells [2]; U87 cells, confocal imaging): worst; hydrophobicity (octanol partitioning) [3]: most hydrophobic
8 | c[Pra-Ser-Tyr-Tyr-Ser-Tyr-Az4] ([Pra]SYYSY[Lys(N3)]; triazole N-C) [EPP7] |  | 0.63243 | 
9 | c[Pra-Thr-Tyr-Tyr-Thr-Tyr-Az4] ([Pra]TYYTY[Lys(N3)]; triazole N-C) [EPP2] |  | 0.46872 | 
10 | c[Pra-Tyr-Ser-Tyr-Tyr-Ser-Az4] ([Pra]YSYYS[Lys(N3)]; triazole N-C) [EPP6] [listing 1 of 2 here] |  | 0.234 | 
11 | c[Pra-Tyr-Ser-Tyr-Tyr-Ser-Az4] ([Pra]YSYYS[Lys(N3)]; triazole N-C) [EPP6] [listing 2 of 2 here] |  |  | delivery of different fluorescent dye cargo molecules (U87 cells [2]; EPP6 conjugated to different dyes incl. AF555 and AF647, U87 cells): could bring all these cargo molecules into U87 cells; fluorescence intensity in the cells compared with TAT peptide (U87 cells [2]; RB tag, U87 cells, confocal imaging): ~2 ×; ability to enter the cells (intracellular fluorescence) (U87 cells [2]; U87 cells, confocal imaging): highest efficiency; concentration-dependent uptake (fluorescence signal) (U87 cells [2]; U87 cells, 20 nM to 100 μM): higher fluorescence signals across a wide range; uptake in different cell lines (different cell lines): able to enter a wide array of human cancer and noncancer cells, as well as non-human cells
12 | c[Pra-Tyr-Thr-Tyr-Tyr-Thr-Az4] ([Pra]YTYYT[Lys(N3)]; triazole N-C) [EPP3] |  | 0.11206 | 
13 | cy(TTTTT) [EPP5] |  | 1.8954 | 
14 | cy(YYTYT) [EPP1] |  | 0.16201 | 
15 | heparin |  |  | effect of heparin on RB-EPP6 uptake (U87 cells [4]): did not affect; also recorded: no inhibitory effect
16 | methyl-β-cyclodextrin | did not inhibit |  | 
